From patent US8354454B2, “Prodrugs of oxazolidinone CETP inhibitors” (Merck Sharp & Dohme Corp., priority 2008, dated 2013)

Assay: physchem
Settings: buffer, pH 7.68
Experimental: 50 μL aliquots were removed periodically. […] Each aliquot was diluted with MeCN-d3 (150 μL), and a ^1H NMR spectrum was acquired (128 scans at 25° C., with acquisition starting 3 minutes after the aliquot was taken from the reaction).
The methods for determining the half-lives were approximately the same as described above, with variations in procedure depending on such variables as solubility and reaction rates.

half-life: ~150 min
SMILES: COc1cc(F)c(C(C)C)cc1-c1ccc(C(F)(F)F)cc1CN[C@@H](C)[C@H](OC(=O)OC(COP(=O)(O)O)COP(=O)(O)O)c1cc(C(F)(F)F)cc(C(F)(F)F)c1 [Example 47, (8R,9S)-8-[3,5-bis(trifluoromethyl)phenyl]-N-{[4′-fluoro-5′-isopropyl-2′-methoxy-4-(trifluoromethyl)biphenyl-2-yl]methyl}-1,1-dihydroxy-6-oxo-4-[(phosphonooxy)methyl]-2,5,7-trioxa-1λ^5-phosphadecan-9-aminium1-oxide chloride]
